Experimental data taken from the NIST ThermoML archive (doi:10.1021/je050389b).

Assay: xn = mol fraction of the nth substance listed
Conditions: Liquid

CCCC(=O)OCCC(C)C [3-methylbutyl butanoate] + CCO
Conditions	mass density, 288.15 K [kg/m3]	mass density, 298.15 K [kg/m3]	mass density, 308.15 K [kg/m3]	mass density, 318.15 K [kg/m3]	viscosity, 288.15 K [mPa·s]	viscosity, 298.15 K [mPa·s]	viscosity, 308.15 K [mPa·s]	viscosity, 318.15 K [mPa·s]
100.5 kPa, x1 = 0.05	–	–	–	–	1.27	1.057	0.887	0.744
100.5 kPa, x1 = 0.1	–	–	–	–	1.231	1.025	0.858	0.723
100.5 kPa, x1 = 0.15	–	–	–	–	1.201	1.004	0.844	0.715
100.5 kPa, x1 = 0.2	–	–	–	–	1.181	0.993	0.838	0.711
100.5 kPa, x1 = 0.25	–	–	–	–	1.171	0.985	0.834	0.71
100.5 kPa, x1 = 0.3	–	–	–	–	1.167	0.98	0.832	0.71
100.5 kPa, x1 = 0.35	–	–	–	–	1.168	0.98	0.833	0.714
100.5 kPa, x1 = 0.4	–	–	–	–	1.17	0.984	0.835	0.717
100.5 kPa, x1 = 0.45	–	–	–	–	1.176	0.989	0.84	0.723
100.5 kPa, x1 = 0.5	–	–	–	–	1.183	0.994	0.846	0.729
100.5 kPa, x1 = 0.55	–	–	–	–	1.191	1.001	0.853	0.735
100.5 kPa, x1 = 0.6	–	–	–	–	1.202	1.01	0.862	0.743
100.5 kPa, x1 = 0.65	–	–	–	–	1.213	1.021	0.872	0.751
100.5 kPa, x1 = 0.7	–	–	–	–	1.224	1.031	0.882	0.76
100.5 kPa, x1 = 0.75	–	–	–	–	1.237	1.043	0.891	0.77
100.5 kPa, x1 = 0.8	–	–	–	–	1.253	1.056	0.903	0.781
100.5 kPa, x1 = 0.85	–	–	–	–	1.268	1.071	0.915	0.792
100.5 kPa, x1 = 0.9	–	–	–	–	1.284	1.086	0.929	0.806
100.5 kPa, x1 = 0.95	–	–	–	–	1.302	1.099	0.941	0.817
100.5 kPa, x1 = 1	–	–	–	–	1.317	1.111	0.952	0.827
101 kPa, x1 = 0.05	804.06	795.35	786.52	777.54	–	–	–	–
101 kPa, x1 = 0.1	812.38	803.57	794.63	785.54	–	–	–	–
101 kPa, x1 = 0.15	819.51	810.61	801.58	792.4	–	–	–	–
101 kPa, x1 = 0.2	825.58	816.61	807.52	798.28	–	–	–	–
101 kPa, x1 = 0.25	830.83	821.8	812.66	803.38	–	–	–	–
101 kPa, x1 = 0.3	835.41	826.34	817.17	807.86	–	–	–	–
101 kPa, x1 = 0.35	839.37	830.31	821.11	811.78	–	–	–	–
101 kPa, x1 = 0.4	842.96	833.85	824.64	815.3	–	–	–	–
101 kPa, x1 = 0.45	846.14	837.02	827.79	818.44	–	–	–	–
101 kPa, x1 = 0.5	849.03	839.9	830.66	821.32	–	–	–	–
101 kPa, x1 = 0.55	851.61	842.46	833.24	823.9	–	–	–	–
101 kPa, x1 = 0.6	854.01	844.86	835.64	826.33	–	–	–	–
101 kPa, x1 = 0.65	856.19	847.05	837.84	828.54	–	–	–	–
101 kPa, x1 = 0.7	858.18	849.04	839.85	830.57	–	–	–	–
101 kPa, x1 = 0.75	860.04	850.92	841.74	832.49	–	–	–	–
101 kPa, x1 = 0.8	861.76	852.65	843.5	834.28	–	–	–	–
101 kPa, x1 = 0.85	863.35	854.28	845.15	835.96	–	–	–	–
101 kPa, x1 = 0.9	864.86	855.81	846.71	837.56	–	–	–	–
101 kPa, x1 = 0.95	866.3	857.28	848.22	839.12	–	–	–	–
101 kPa, x1 = 1	867.72	858.69	849.62	840.55	–	–	–	–

CC(=O)OCCC(C)C [3-methylbutyl ethanoate] + CCO
100.5 kPa
Conditions	mass density, 288.15 K [kg/m3]	mass density, 298.15 K [kg/m3]	mass density, 308.15 K [kg/m3]	mass density, 318.15 K [kg/m3]	viscosity, 288.15 K [mPa·s]	viscosity, 298.15 K [mPa·s]	viscosity, 308.15 K [mPa·s]	viscosity, 318.15 K [mPa·s]
x1 = 0.05	803.41	794.64	785.74	776.69	1.22	1.011	0.847	0.716
x1 = 0.1	811.89	802.92	793.84	784.6	1.133	0.946	0.799	0.68
x1 = 0.15	819.25	810.13	800.9	791.5	1.072	0.902	0.762	0.651
x1 = 0.2	825.81	816.58	807.21	797.69	1.031	0.866	0.735	0.63
x1 = 0.25	831.66	822.31	812.85	803.22	0.996	0.841	0.716	0.615
x1 = 0.3	836.85	827.42	817.86	808.15	0.968	0.821	0.701	0.605
x1 = 0.35	841.58	832.08	822.44	812.65	0.948	0.805	0.689	0.596
x1 = 0.4	845.81	836.24	826.53	816.69	0.934	0.793	0.68	0.59
x1 = 0.45	849.7	840.07	830.32	820.42	0.924	0.786	0.675	0.586
x1 = 0.5	853.26	843.59	833.79	823.86	0.916	0.779	0.671	0.583
x1 = 0.55	856.53	846.82	836.99	827.03	0.91	0.776	0.668	0.582
x1 = 0.6	859.57	849.83	839.97	829.99	0.907	0.773	0.667	0.582
x1 = 0.65	862.36	852.58	842.71	832.72	0.908	0.773	0.667	0.584
x1 = 0.7	865	855.21	845.33	835.33	0.911	0.775	0.67	0.588
x1 = 0.75	867.44	857.64	847.75	837.75	0.912	0.78	0.675	0.594
x1 = 0.8	869.73	859.93	850.04	840.05	0.916	0.782	0.68	0.601
x1 = 0.85	871.89	862.08	852.2	842.22	0.926	0.791	0.688	0.609
x1 = 0.9	873.95	864.14	854.28	844.34	0.937	0.799	0.697	0.618
x1 = 0.95	875.87	866.09	856.25	846.32	0.939	0.804	0.703	0.625
x1 = 1	877.72	867.91	858.07	848.17	0.94	0.804	0.704	0.627
